The values below come from paper PMC3201017, “Modification of the loops in the ligand-binding site turns avidin into a steroid-binding protein” (BMC Biotechnology, 2011).

Series [1] deals with T1, sbAvd-1 (steroid-binding avidin mutant) (Gallus gallus, UniProt P02701, D37R/L38M/G39N/S40H).
T1 construct: gene AVD; full avidin core, homotetramer, produced in E. coli
In words: SPR competition on testosterone-BSA chip, […] inhibitor.

The target in series [2] is T2, sbAvd-2 (steroid-binding avidin mutant) (Gallus gallus, UniProt P02701, D37R/L38M/G39N/S40H/T59A/A60T/T62N).
T2 construct: gene AVD; full avidin core, homotetramer, produced in E. coli
Described as above.

Series [3] addresses T1, sbAvd-1 (steroid-binding avidin mutant). In words: microplate binding to immobilized HSA-conjugated progesterone.
Series [4] addresses T2, sbAvd-2 (steroid-binding avidin mutant). The series is described as above.
Series [5] deals with the molecule itself. In words: SEC; FPLC gel-filtration, Superdex 200 10/300 GL, calibrated with a molecular-mass standard; 20 mM sodium phosphate pH 7.4, 1 M NaCl, 20 mM imidazole; 90-193 μg protein in 500 μl. Background: In gel filtration, larger molecules generally elute earlier.

Where a name gives a salt, the structure may show the parent alone.

For `C[C@]12CC[C@H](OS(=O)(=O)O)CC1=CC[C@@H]1[C@@H]2CC[C@]2(C)C(=O)CC[C@@H]12` [DHEAS, dehydroepiandrosterone sulfate], the “SPR competition on testosterone-BSA chip, 50 μM inhibitor” value in series [1] was “SbAvd-1 was found to be cross-reactive with androgens highly similar to testosterone (DHEAS and androstenedione)”; in series [2], “The binding of sbAvd-2 to testosterone was found to be most efficiently inhibited by testosterone and DHEAS”. Turning to `CC(=O)[C@H]1CC[C@H]2[C@@H]3CCC4=CC(=O)CC[C@]4(C)[C@H]3CC[C@]12C` [PRO, progesterone], the “microplate binding to immobilized HSA-conjugated progesterone” value was “sbAvd-1 also binds other steroid hormones, such as progesterone and DHEAS” in series [3]; “these modified Avds showed clear binding to testosterone and progesterone” in series [4].

B1: steroid-binding avidin mutant sbAvd-1 (designed binder)
chain: ARKCSLTGKWTNRMNHNMTIGAVNSRGEFTGTYITAVTATSNEIKESPLHGTQNTINKRTQPTFGFTVNWKFSESTTVFTGQCFIDRNGKEVLKTMWLLRSSVNDIGDDWKATRVGINIFTRLRTQKE
notes: chicken avidin (Avd) with the loop between beta-strands 1 and 2 (N12, D13, L14, G15, S16) changed to N12, R13, M14, N15, H16; selected by phage display from the Avd L1,2 library; source: E. coli BL21-AI, pET101/D, secreted with the OmpA signal of Bordetella avium, purified (Ni-NTA)
What is called stoichiometry N is a count of units in the complex or per binding partner. Consider B1, for which, in series [5], the “stoichiometry N” value was 4.

B2: steroid-binding avidin mutant sbAvd-2 (designed binder)
chain: ARKCSLTGKWTNRMNHNMTIGAVNSRGEFTGTYIATVNATSNEIKESPLHGTQNTINKRTQPTFGFTVNWKFSESTTVFTGQCFIDRNGKEVLKTMWLLRSSVNDIGDDWKATRVGINIFTRLRTQKE
notes: selected by phage display from the sbAvd-1 L3,4 library; source: E. coli BL21-AI, pET101/D, secreted with the OmpA signal of Bordetella avium, purified (Ni-NTA)
B2: the “stoichiometry N” value in series [5] was 4.
